Assay results taken from ChEMBL document CHEMBL3507680, “University of Dundee, Gates Library screen for HepG2 cell viability”.

assay: Human HepG2 cell viability assay in 384 well format; assay type: toxicity, cell-based; set-up: dose 125 nL, time 70.5 hour; concentration not given beside the values; details: HepG2 cells, read-out: Inhibition

Row | Structure (SMILES) | cytotoxicity at 70.5 h [%]
1 | O=C(c1cnccn1)N1CCC2(CCN(Cc3ccsc3)CC2)CC1 | -2.48
2 | Cc1noc(C)c1CNC[C@@]1(COc2cccnc2)C[C@@H](O)[C@@H](O)C1 | -8.56
3 | Cc1ccc(CN2CC(C(=O)Nc3ccccc3)C3(CCOCC3)C2)s1 (stereo not given) | -13.1
4 | CCn1ccc(NC(=O)C2CCC(=O)N2Cc2ccc(C)o2)n1 (stereo not given) | -4.94
5 | CCCNC(=O)NC(C)c1ccccn1 (stereo not given) | -11.1
6 | CC(C)NC(=O)c1ccc2c(c1)C(c1nc[nH]n1)CN2C (stereo not given) | -8.61
7 | O=C(c1cccs1)N1CC(C(=O)N2CCCC2)C2(CCOCC2)C1 (stereo not given) | 0.22
8 | Cn1ncc2c(NCCCOc3cccnc3)nc(C3CCCC3)nc21 | 16.2
9 | Cc1nnc(C2CCN(C(=O)c3cnc4ccccc4n3)CC2)s1 | -2.76
10 | Cc1ncc2c(n1)C1(CCN(C(=O)C(C)C)CC1)OCC2 | -6.13
11 | O=C(C1CCCc2[nH]ncc21)N1CCCCCC1 (stereo not given) | -7.74
12 | CNc1snc(C)c1C(=O)NC(C)CC(=O)c1cccs1 (stereo not given) | -14.5
13 | Cc1cc2n(n1)CC(CNCc1cc(C)on1)CN2 (stereo not given) | -9.53
14 | Cc1ccc(N2CC[C@H]3C[C@H](C(=O)NCc4ccco4)O[C@@H]3C2)cc1 | 2.5
15 | c1cc(CN2CCCC(c3noc(C4CC4)n3)C2)no1 (stereo not given) | 3.46
16 | CC(C)C(O)C1(CNC(=O)Nc2ccc(CN3CCOC3=O)cc2)CC1 (stereo not given) | -11.3
17 | Cc1cc2[nH]c(CN3CCOC(C(F)(F)F)C3)cc(=O)n2n1 (stereo not given) | 17.8
18 | CC(CC#N)NC(=O)c1cc(Br)c2c(c1)OCCO2 (stereo not given) | 0.544
19 | COc1cc2c(cc1OC)S(=O)(=O)N(Cc1ccc(C)cc1)C2=O | -14.5
20 | CCN(CC)CCNC(=O)CCc1c(C)nn(-c2ccc(Cl)cc2)c1C | -7.15
21 | Cc1nc2cc(-c3nccn3C)nn2c(N2CCCC(O)C2)c1C (stereo not given) | 0.494
22 | Cc1ccc(S(=O)(=O)Nc2ccc(=O)n(C)c2)c(Br)c1 | 21.8

Row | Structure (SMILES) | cytotoxicity at 70.5 h [%]
23 | CCC1CN(C(=O)c2csc3nc(-c4ccc(Cl)cc4)cn23)CCN1 (stereo not given) | -12.3
24 | CCc1cc(CN(C)C(=O)c2nnc(CN(C)C)o2)on1 | -4.97
25 | Cc1cnn(CCC(=O)N2CCN(C(=O)C3CC3)[C@@H]3CS(=O)(=O)C[C@@H]32)c1 | -5.71
26 | CN(C)S(=O)(=O)N1CCC(c2nnc(C(F)(F)F)o2)CC1 | 30.8
27 | CCc1ccc(CCC(=O)N2CCC(=O)Nc3cccnc32)cc1 | 23.9
28 | O[C@@H]1C[C@H]2CN(Cc3ccccc3)[C@H](Cc3ccccc3)CN2C1 | 27.4
29 | O=C(NCc1ccc(Cl)cc1Cl)NCC1(O)CCSC1 (stereo not given) | 18.5
30 | CC(C)C1CN(S(=O)(=O)C2CC2)CCCN1Cc1ccc(F)cc1 (stereo not given) | -3.51
31 | CCC[C@H]1CN(Cc2ccccc2C#N)C[C@@H]1NS(C)(=O)=O | -6.89
32 | CC(CNC(=O)CCCc1ccccn1)c1ccsc1 (stereo not given) | -12.4
33 | CN(CC1CCCCO1)c1nc2c(cc1C(N)=O)CCC2 (stereo not given) | -8.46
34 | Cc1cc(OCc2cccc(F)c2)ccc1NC(=O)C(C)NC(N)=O (stereo not given) | 5.5
35 | Cc1ncc(C(=O)N2CCCC(C(=O)c3nccn3C)C2)c(O)n1 (stereo not given) | 9.55
36 | CC(C)(C)C(=O)NCCc1cc2nc(-c3ccncc3)ccn2n1 | 1.86
37 | COc1ncccc1C(=O)N1CC[C@H]2C[C@@H](c3ccncn3)O[C@@H]2C1 | -18
38 | Cn1nccc1C1CCN(Cc2ccn(-c3ccccc3)n2)CC1 | -5.5
39 | Cc1cnn(CC2CCCN2C(=O)CN(C)C2CC2)c1 (stereo not given) | -11.8
40 | COc1ccc(C(C(=O)O)N(C)CCN2CCOCC2)c(C)c1 (stereo not given) | -11.3
41 | CN1CCC/C1=N\S(=O)(=O)c1ccc(NC(=O)c2cccs2)cc1 | -2.28
42 | O=C(Cc1ccc(F)cc1)NCCNc1cc(N2CCCC2)cnn1 | 30.6
43 | CC(C)Oc1ccc2c(NC(=O)CNC(N)=O)nn(CC(F)(F)F)c2c1 | 3.1
44 | CC(C)CN1CCc2[nH]cnc2C12CCN(C(=O)c1cc[nH]n1)CC2 | -5.86

Row | Structure (SMILES) | cytotoxicity at 70.5 h [%]
45 | CCN(Cc1cnc(C)cn1)C1CCN(c2ccccc2)C1=O (stereo not given) | 2.9
46 | CC(C)(C)n1ncc2c1NC(=O)CC2c1ccc(C#N)cc1 (stereo not given) | -10
47 | O=C1NC(c2ccccc2)=N[C@@]12CC[C@@H]1CN(S(=O)(=O)C3CC3)C[C@@H]12 | 2.16
48 | OCC(O)CSCc1ccc(Cl)cc1Cl (stereo not given) | 0.304
49 | O=C(c1ccc2[nH]ccc2c1)N1Cc2nc(CN3CCCCC3)oc2C1 | -3.84
50 | O=C(Cn1cnnn1)N1CCCCC1Cn1cccn1 (stereo not given) | 17.9
51 | O=C(NCCCc1cccs1)N1CCCCC1CCO (stereo not given) | -1.44
52 | COc1cccc(C(=O)NC(c2ccccn2)[C@H]2CC[C@H](CN)CC2)c1 (stereo not given in full) | -8.19
53 | Cc1csc(CN2C[C@@H]3COC[C@]3(COCC(=O)N(C)C)C2)n1 | -3.08
54 | CN(Cc1ncc[nH]1)c1nc(-c2ccccn2)nc2c1CCNCC2 | -11.9
55 | Cc1cc2occ(CC(=O)N3CCC(O)(CN(C)C)C3)c2cc1Cl (stereo not given) | -5.39
56 | COCCC1(CO)CCCN(Cc2ccc(F)c(C)c2)C1 (stereo not given) | -6.14
57 | CC(C)N(C)CC(=O)NCC(O)c1cc2ccccc2s1 (stereo not given) | -7.72
58 | NCc1cn(CC2CCCN(C(=O)NCc3ccc(Cl)cc3)C2)nn1 (stereo not given) | 2.71
59 | COCCCNC(=O)Nc1cccc2ncccc12 | 30.8
60 | Cc1ccc2nc(CN3CCC(O)(CN4CCCC4)CC3)cc(O)c2c1 | -7.1
61 | CCCS(=O)(=O)N1C[C@@H](c2nc(C)no2)C[C@H]2OCC[C@H]21 | -0.391
62 | Cn1cnc(S(=O)(=O)Nc2cc(C(N)=O)ccc2Cl)c1 | -8.58
63 | COCC(=O)N1CC[C@@H]2O[C@H](COCc3csc(C)n3)CC[C@@H]21 | -4.59
64 | O=C(CCc1ccccc1)N[C@H]1CC[C@@]2(CCC(=O)N2)CC1 | -8.44
65 | COc1c(CNCc2ccnc(N3CCCC3)c2)c(C)nn1C | -0.752
66 | CN(C)C(C(=O)N1CCC(c2ncc[nH]2)CC1)c1ccc2c(c1)OCO2 (stereo not given) | -5.4

Row | Structure (SMILES) | cytotoxicity at 70.5 h [%]
67 | COCCNC(=O)c1cc(F)ccc1NS(C)(=O)=O | -1.48
68 | Cn1c(NCC(=O)N2CCCCC2)c(C#N)c(=O)n(C)c1=O | -11.6
69 | Cc1nc(C)n(CC2CCCCN2CC(=O)NC(C2CC2)C2CC2)n1 (stereo not given) | 3.82
70 | CCN(Cc1c(C)nn(CC)c1C)S(=O)(=O)c1cn(C)nc1C | -2.98
71 | O=C1[C@H]2CN(Cc3nccs3)C[C@H]2CN1c1ccsc1 | -1.21
72 | CCCS(=O)(=O)N[C@H]1CN(c2ncccc2C(N)=O)C[C@@H]1C(C)C | 0.22
73 | CCOc1cc(/C=C/c2ncc(C(=O)O)s2)cc(Br)c1OC | -10.4
74 | O=C(Nc1ccc(F)cc1)N(CCC(F)(F)F)C[C@H](O)CO | -0.146
75 | O=C(N[C@@H]1CCN(Cc2cccc3nonc23)C[C@H]1O)c1cccnc1 | -13.7
76 | CCN(CC(F)(F)F)C(=O)C1CCCN(Cc2nc(C)c(C)o2)C1 (stereo not given) | -1.99
77 | O=C(NCCCO)c1nc(-c2ccc3cc[nH]c3c2)no1 | -7.51
78 | Cc1ccc(C2CN(C(=O)c3c(C)cc(C)[nH]c3=O)CCO2)c(C)c1 (stereo not given) | 9.82
79 | O=C(NC1CC1)N1CCc2ccc(=O)n(CCN3CCCC3)c2CC1 | 0.272
80 | CC(=O)c1ccc(C(=O)N2CCC(c3cc(O)nc(C)n3)CC2)s1 | -10.9
81 | Cc1cc(CN(C)C(C(=O)O)c2cccc(C(F)(F)F)c2)on1 (stereo not given) | -7.95
82 | Cc1cc(C)n(C2CCCN(C(=O)CCNc3ncccn3)C2)n1 (stereo not given) | -2.87
83 | Cc1noc(C)c1CN1C[C@@H](OCc2ccccn2)[C@H]2OCCC[C@H]21 | -16.3
84 | CC1c2cccn2CCN1C(=O)CCc1nc(C2CC2)no1 (stereo not given) | -8.57
85 | CC1CCC(NS(=O)(=O)CC(=O)NCC2CCC2)CC1 (stereo not given) | -13.2
86 | CCN(CC)C(=O)Cn1cc(-c2nc(C(C)C)no2)nn1 | -9.42
87 | CSCC[C@@H](CO)NC(=O)c1ccc2nc(NS(C)(=O)=O)sc2c1 | -1
88 | CN(C(=O)c1cccnc1)C1CCCN(CCc2ccccc2)C1 (stereo not given) | -5.02

Row | Structure (SMILES) | cytotoxicity at 70.5 h [%]
89 | CCc1noc(Cn2c(=O)c3c(C(F)(F)F)cc(C)nc3n2C)n1 | 19.2
90 | Cn1ccc(C(=O)N2CCCC(n3cncn3)C2)cc1=O (stereo not given) | -10.3
91 | COCCN(C)C[C@H]1C[C@H](CO)CN(C(=O)c2ccn(C)c(=O)c2)C1 | -9.68
92 | CCc1nnc2n1CCN(Cc1noc(-c3cccc(C)c3)n1)C2 | -2.11
93 | O=C(NCC1CCCCC1)c1nnn(-c2ccc(Br)cc2)n1 | -6.14
94 | CCOC1CCCN(C(=O)CCOc2ccc(C)cc2OC)C1 (stereo not given) | 24.8
95 | CCOc1no[n+]([O-])c1-c1ccccc1 | -3.07
96 | O=C(c1ccc[nH]1)N1CCc2c(COCC3CC3)cncc2C1 | -4.79
97 | Cc1cccnc1CN1CCN(C(=O)c2cc(Cl)c[nH]c2=O)CC1 | 8.42
98 | Cc1cc(-c2cc(S(=O)(=O)N3C[C@H](C4CC4)[C@@H](N)C3)c(C)s2)[nH]n1 | -9.13
99 | CC(C)c1cnc(CN(C)C2CCN(CCc3ccncc3)C2)o1 (stereo not given) | 18.9
100 | O=C(c1cnc2ccccn12)N1CCCC(c2ccn[nH]2)C1 (stereo not given) | -11.2
101 | O=C(O)c1cc2c(nc1N1CCCC1)CCN(C1CCOCC1)CC2 | 12
102 | Cc1cc2ccccc2n1CC(=O)N[C@@H](C)C(=O)O | -19.5
103 | CCN(C(=O)c1cnc(-c2ccc3c(c2)OCO3)s1)C1CC1 | 12.4
104 | Cc1nc2ccccc2nc1CN1CCCC1c1c(C)nn(C)c1C (stereo not given) | -4.26
105 | CC(C)OCCCNC(=O)CSc1nnc(OC(C)C)s1 | -4.19
106 | O=C(NCc1ccc(Br)cc1F)C1(O)CCSCC1 | -2.81
107 | CC(C)NC(=O)CC1COC2(CCN(Cc3ccsc3)CC2)C1 (stereo not given) | -9.99
108 | CN(C)CCOCc1cncc2c1CCN(C(=O)C1CCOCC1)C2 | -6.54
109 | Cc1ccc2c(c1)C1(CC2)CCN(c2nncs2)CC1 | -4.57
110 | Cn1c(=O)[nH]c(=O)c2cc(C(=O)N3CCCC3C3CCCC3)cnc21 (stereo not given) | 22.8
